Experimental data reported in PubChem BioAssay (NCI).
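GI50: concentration for 50% inhibition of growth. TGI denotes the concentration required for complete inhibition of growth.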

Key:
Experiment in all cases: NCI-60 cell line screen, 384-well format
RPMI-8226 leukemia = test system: RPMI-8226 leukemia
786-0 renal = test system: 786-0 renal
KM12 colon = test system: KM12 colon
SN12C renal = test system: SN12C renal
LOX IMVI melanoma = test system: LOX IMVI melanoma
HS 578T breast = test system: HS 578T breast
EKVX NSCLC = test system: EKVX NSCLC
HT29 colon = test system: HT29 colon
SK-MEL-2 melanoma = test system: SK-MEL-2 melanoma
CAKI-1 renal = test system: CAKI-1 renal
MDA-MB-435 melanoma = test system: MDA-MB-435 melanoma
PC-3 prostate = test system: PC-3 prostate
SNB-75 CNS = test system: SNB-75 CNS

With `O=C(O)[C@H](Cc1c[nH]c2ccccc12)N1C(=O)c2ccccc2C1=O` the GI50 (RPMI-8226 leukemia) was > 100 µM, the TGI (RPMI-8226 leukemia) was > 100 µM and the GI50 (786-0 renal) was > 100 µM. The TGI (786-0 renal) was > 100 µM, the GI50 (KM12 colon) was > 100 µM and the TGI (KM12 colon) was > 100 µM. For the same molecule, the GI50 (SN12C renal) was > 100 µM, the TGI (SN12C renal) was > 100 µM and the GI50 (LOX IMVI melanoma) was > 100 µM. The TGI (LOX IMVI melanoma) was > 100 µM, the GI50 (HS 578T breast) was > 100 µM and the TGI (HS 578T breast) was > 100 µM. For the same molecule, the GI50 (EKVX NSCLC) was > 100 µM, the TGI (EKVX NSCLC) was > 100 µM and the GI50 (HT29 colon) was > 100 µM. The TGI (HT29 colon) was > 100 µM, the GI50 (SK-MEL-2 melanoma) was > 100 µM and the TGI (SK-MEL-2 melanoma) was > 100 µM. For the same molecule, the GI50 (CAKI-1 renal) was > 100 µM, the TGI (CAKI-1 renal) was > 100 µM and the GI50 (MDA-MB-435 melanoma) was > 100 µM. The TGI (MDA-MB-435 melanoma) was > 100 µM, the GI50 (PC-3 prostate) was > 100 µM and the TGI (PC-3 prostate) was > 100 µM. The GI50 (SNB-75 CNS) was > 100 µM and the TGI (SNB-75 CNS) was > 100 µM.
